Assay results from patent publication US8540983B2, “Debriding composition from bromelain and methods of production thereof” (MediWound Ltd., priority 2004, dated 2013).

Tested on: Debrase esterolytic activity
Test: Esterolytic activity of Debrase (CLN substrate) and its inhibition by bromelain HPLC fractions
Assay type: biochemical, Ananas comosus
Details: Debrase + 1 mM Iodoacetamide, pH 4.6
Method: Bromelain powder (2.5 g) was suspended in 10 ml of 0.1M potassium phosphate buffer pH 6.1 saturated with phenyl mercury acetate for 10 min. After centrifugation for 10 min (3500 rpm), one ml of the supernatant was applied to gel filtration chromatography on a HiLoad 16/60 Superdex 75 HPLC preparation grade column, equilibrated and eluted with the same buffer. Fractions of 5 ml were collected 30 minutes after sample application. For each of the eluted fractions, three parameters were measured: (i) absorbance at 280 nm (A280); (ii) esterolytic activity; and (iii) inhibition of Debrase esterolytic activity.
The esterolytic activity of the bromelain fractions was assayed spectrophotometrically at pH 4.6 using the chromogenic substrate p-nitrophenyl Na-benzyloxycarbonyl-L-lysinate (CLN) as follows:
One milliliter of sodium acetated buffer (10 mM) containing 0.1 M KCl and 1 mM L-cysteine, pH 4.6 was placed in a plastic cuvette at 25° C. One hundred μl of the eluted fraction (at a concentration of 2.5 mg/ml) were added. The solution was incubated for 2 min and then 50 μl of CLN solution (2.5 mM in acetonitrile 10% water) were added. The cuvette was mixed and the increase in absorbance at 317 nm was monitored for 5 minutes. The spontaneous hydrolysis of the substrate was monitored in the presence of buffer only instead of the eluted fractions.

## NC(=O)CI [Iodoacetamide]
  % Inhibition: 37.0%
  Proteolytic activity (esterolytic activity of Debrase): 593
